# Read-outs that look alike come from different tables or passages of the source.
# Tests used:
# [1] = tested on: Salmonella typhimurium TA97a; assay: Ames antimutagenicity assay (preincubation); details: for inhibition at 50 µM / inhibition at 100 µM / inhibition at 250 µM / inhibition at 500 µM: Salmonella enterica, TYPHIMURIUM;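 for all read-outs here: compound and mutagen preincubated together 30 min at 37 °C before adding bacteria, then plated on minimal glucose agar for 48 h and His+ revertant colonies counted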
# Description: (§2) In the preincubation experiment, test compounds and mutagen, each having a volume of 0.1 mL of varying concentrations, were preincubated at 37°C for 30 min and then 0.1 mL of 1 × 10^7 CFU/mL density of the bacterial culture was added, followed by the addition of 2.5 mL of top agar at 45°C (containing 0.5% NaCl and 0.6% agar) supplemented with 0.5 mM histidine-biotin. […] The combined solutions were vortexed and poured onto minimal glucose plates (40% glucose solution and Vogel Bonner medium). The plates were incubated at 37°C for 48 h and the numbers of histidine-independent revertants colonies were scored.
# (§3) Survival of the bacteria was routinely monitored for each experiment. Parallel controls were run with compounds alone at all concentrations to test the possible toxicity. The concentrations of the test samples for investigating the antimutagenicity were 50, 100, 200, and 500 μM. […] All the test samples and mutagens were dissolved in DMSO (final conc., 0.01%). […] Plates were set up in triplicate for each concentration and the entire experiment was repeated three times. Inhibition of mutagenicity was expressed as percentage decrease of reverse mutation and calculated as (1) Percent inhibition=[(a−b)/(a−c)]×100, where a = number of histidine revertants induced by mutagen, b = number of histidine revertants induced by mutagen in the presence of test compound, and c = number of revertants induced in negative control.
# [2] = tested on: Salmonella typhimurium strains TA97a, TA98, TA100, and TA102; assay: Ames test, statements over all tester strains
# Description: as §2, §3
# [3] = tested on: Salmonella typhimurium TA98; assay: Ames antimutagenicity assay (preincubation); details: for inhibition at 50 µM / inhibition at 100 µM / inhibition at 250 µM / inhibition at 500 µM: Salmonella enterica, TYPHIMURIUM;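 for all read-outs here: test compound and mutagen preincubated 30 min at 37°C before adding bacteria, then His+ revertant colonies counted after 48 h plating, inhibition relative to mutagen-only versus negative-control revertants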
# Description: as §2, §3
# [4] = tested on: BP-induced DNA adducts (rat liver microsomes, st-DNA); assay: Microsomal BP-DNA adducts, 32P-postlabeling; assay type: biochemical; details: for BP-induced DNA adducts: BP 1 μM, rat liver microsomes, st-DNA
# Description: st-DNA (300 μg/mL) was preincubated with 50 mM Tris-HCl (pH 7.5), 1 mM MgCl2, 2.5 mM glucose-6-phosphate, 1 U/mL G6PDH, 0.5 mM NADP+, and α-naphthoflavone-induced rat liver microsomal proteins (1 mg/mL) in 1 mL for 10 min, in the presence of vehicle alone and PC and EA at 20 and 40 μM. […] The incubation was continued for another 30 min at 37°C and then reaction was terminated by the addition of EDTA and centrifugation (9,000 g; 10 min). DNA was isolated from the supernatant by removal of RNA and proteins by digestions with RNases A and T1 and proteinase K and a series of extractions with phenol, phenol: Sevag (chloroform : isoamyl alcohol, 24 : 1), and Sevag, followed by precipitation of the DNA with ethanol. The DNA concentration was estimated spectrophotometrically.
# DNA adducts were analyzed by ^32P-postlabeling as described earlier. Briefly, 10 μg of DNA was digested with micrococcal nuclease and spleen phosphodiesterase (MN/SPD). Before further treatment with nuclease P1 to enrich DNA adducts, an aliquot was removed for evaluation of normal nucleotide levels. DNA adducts and normal nucleotides were labelled with [γ-^32P]ATP and T4 polynucleotide kinase. Labelled adducts were separated by multidirectional polyethyleneimine (PEI)-cellulose TLC using the following solvents: D1, 1.0 M sodium phosphate, pH 6.0; D3, 4 M lithium formate/7 M urea, pH 3.5; D4, 4 M ammonium hydroxide/isopropanol (1 : 0.9); and D5, 1.7 M sodium phosphate, pH 6.0. Normal nucleotides were resolved in 180 mM sodium phosphate, pH 6.0, by one-directional PEI-cellulose TLC. DNA adducts and normal nucleotides were detected and quantified by Packard InstantImager.
# H1299 cells = assay: MTT cell proliferation assay; assay type: cell-based; details: Homo sapiens, NCI-H1299, 48 h, read-out: inhibition of cells (antiproliferative activity, MTT)
# Description: (§1) Inhibition of cell proliferation by PC and EA was measured with the MTT assay. Human lung cancer A549 and H1299 cells were obtained from ATCC (Manassas, VA, USA) and maintained in DMEM supplemented with 10% fetal calf serum (FCS), 1% penicillin/streptomycin. Cells were plated in 96-well culture plates (5 × 10^3 cells/well). After 24 h incubation, cells were treated with vehicle alone (0.1% DMSO) and PC and EA (12.5–200 μg/mL) extracts for 48 h. Then, the culture medium was replaced by 100 μL of fresh medium containing 0.5 mg/mL MTT, and the plates were incubated for 2 h at 37°C. The medium was then removed and was replaced by 200 μL of DMSO to solubilize the converted purple dye. The absorbance was measured with a spectrophotometer microplate reader at a wavelength of 570 nm.
# A549 cells = assay: MTT cell proliferation assay; assay type: cell-based; details: Homo sapiens, A549, 48 h, read-out: inhibition of cells (antiproliferative activity, MTT)
# Description: as §1
smiles,measurement,setting,value
O=C1O[C@H]2[C@@H]3OC(=O)c4cc(O)c(O)c(O)c4-c4c(O)c(O)c5oc(=O)c6c(c(O)c(O)c7oc(=O)c4c5c76)-c4c(cc(O)c(O)c4O)C(=O)OC[C@H]3OC(O)[C@@H]2OC(=O)c2cc(O)c(O)c(O)c2-c2c1cc(O)c(O)c2O (mixture of isomers) [Punicalagin],inhibition at 50 µM,"[1]; read-out: % inhibition of mutagenicity, TA 97a, 50 μM + 2AF, S9",15.7%
same,inhibition at 50 µM,"[1]; read-out: % inhibition of mutagenicity, TA 97a, 50 μM + BP, S9",15.1%
same,inhibition at 50 µM,"[1]; read-out: % inhibition of mutagenicity, TA 97a, 50 μM + MMS, no S9",10.2%
same,inhibition at 50 µM,"[1]; read-out: % inhibition of mutagenicity, TA 97a, 50 μM + NaN3, no S9",10.2%
same,inhibition at 100 µM,"[1]; read-out: % inhibition of mutagenicity, TA 97a, 100 μM + 2AF, S9",37.1%
same,inhibition at 100 µM,"[1]; read-out: % inhibition of mutagenicity, TA 97a, 100 μM + BP, S9",34.3%
same,inhibition at 100 µM,"[1]; read-out: % inhibition of mutagenicity, TA 97a, 100 μM + MMS, no S9",19.9%
same,inhibition at 100 µM,"[1]; read-out: % inhibition of mutagenicity, TA 97a, 100 μM + NaN3, no S9",34.2%
same,inhibition at 250 µM,"[1]; read-out: % inhibition of mutagenicity, TA 97a, 250 μM + BP, S9",53.5%
same,inhibition at 250 µM,"[1]; read-out: % inhibition of mutagenicity, TA 97a, 250 μM + MMS, no S9",42.4%
same,inhibition at 250 µM,"[1]; read-out: % inhibition of mutagenicity, TA 97a, 250 μM + NaN3, no S9",54.9%
same,inhibition at 500 µM,"[1]; read-out: % inhibition of mutagenicity, TA 97a, 500 μM + 2AF, S9",78.5%
same,inhibition at 500 µM,"[1]; read-out: % inhibition of mutagenicity, TA 97a, 500 μM + BP, S9",76.7%
same,inhibition at 500 µM,"[1]; read-out: % inhibition of mutagenicity, TA 97a, 500 μM + MMS, no S9",72%
same,inhibition at 500 µM,"[1]; read-out: % inhibition of mutagenicity, TA 97a, 500 μM + NaN3, no S9",74.4%
same,Number of His+ revertants colonies/plate,"[1]; TA 97a, 50 μM + 2AF, S9",304.7 ± 19.8 colonies/plate
same,Number of His+ revertants colonies/plate,"[1]; TA 97a, 50 μM + BP, S9",645.3 ± 28.7 colonies/plate
same,Number of His+ revertants colonies/plate,"[1]; TA 97a, 50 μM + MMS, no S9",418.3 ± 11.7 colonies/plate
same,Number of His+ revertants colonies/plate,"[1]; TA 97a, 50 μM + NaN3, no S9",244.3 ± 6.7 colonies/plate
same,Number of His+ revertants colonies/plate,"[1]; TA 97a, 100 μM + 2AF, S9",270.3 ± 10.1 colonies/plate
same,Number of His+ revertants colonies/plate,"[1]; TA 97a, 100 μM + BP, S9",538.3 ± 28.9 colonies/plate
same,Number of His+ revertants colonies/plate,"[1]; TA 97a, 100 μM + MMS, no S9",390.7 ± 10.2 colonies/plate
same,Number of His+ revertants colonies/plate,"[1]; TA 97a, 100 μM + NaN3, no S9",221.0 ± 7.1 colonies/plate
same,Number of His+ revertants colonies/plate,"[1]; TA 97a, 250 μM + BP, S9",431.0 ± 18.4 colonies/plate
same,Number of His+ revertants colonies/plate,"[1]; TA 97a, 250 μM + MMS, no S9",326.0 ± 7.8 colonies/plate
same,Number of His+ revertants colonies/plate,"[1]; TA 97a, 250 μM + NaN3, no S9",202.3 ± 8.7 colonies/plate
same,Number of His+ revertants colonies/plate,"[1]; TA 97a, 500 μM + 2AF, S9",220.0 ± 9.3 colonies/plate
same,Number of His+ revertants colonies/plate,"[1]; TA 97a, 500 μM + BP, S9",316.0 ± 17.6 colonies/plate
same,Number of His+ revertants colonies/plate,"[1]; TA 97a, 500 μM + MMS, no S9",251.0 ± 9.0 colonies/plate
same,% inhibition of mutagenicity,"[1]; TA 97a, 500 μM + MMS, no S9, 500 µM",72.1%
same,Number of His+ revertants colonies/plate,"[1]; TA 97a, 500 μM + MMS, no S9, listed as PC",251 colonies/plate
same,Number of His+ revertants colonies/plate,"[1]; TA 97a, 500 μM + NaN3, no S9",195.0 ± 10.8 colonies/plate
same,toxicity to Salmonella typhimurium strains,"[2]; 50–500 μM, absence of S9",No toxicity
same,inhibition at 500 µM,"[2]; Salmonella enterica, TYPHIMURIUM, read-out: inhibition of 2AF- and BP-induced mutagenicity (range over strains)",76.7 to 85%
same,mutagenic activity,"[2]; TA97a, TA98, TA100, TA102, with or without S9, plate incorporation assay",No mutagenic activity
same,maximum inhibition of mutagenicity,"[2]; against sodium azide, MMS, BP, 2AF, 50–500 μM",up to 90%
same,inhibition at 50 µM,"[3]; read-out: % inhibition of mutagenicity, TA 98, 50 μM + 2AF, S9",20.5%
same,inhibition at 50 µM,"[3]; read-out: % inhibition of mutagenicity, TA 98, 50 μM + BP, S9",22.1%
same,inhibition at 50 µM,"[3]; read-out: % inhibition of mutagenicity, TA 98, 50 μM + MMS, no S9",29.4%
same,inhibition at 100 µM,"[3]; read-out: % inhibition of mutagenicity, TA 98, 100 μM + 2AF, S9",37.5%
same,inhibition at 100 µM,"[3]; read-out: % inhibition of mutagenicity, TA 98, 100 μM + BP, S9",46.6%
same,inhibition at 100 µM,"[3]; read-out: % inhibition of mutagenicity, TA 98, 100 μM + MMS, no S9",46.3%
same,inhibition at 100 µM,"[3]; read-out: % inhibition of mutagenicity, TA 98, 100 μM + NaN3, no S9",30%
same,inhibition at 250 µM,"[3]; read-out: % inhibition of mutagenicity, TA 98, 250 μM + BP, S9",74.8%
same,inhibition at 250 µM,"[3]; read-out: % inhibition of mutagenicity, TA 98, 250 μM + MMS, no S9",59.2%
same,inhibition at 250 µM,"[3]; read-out: % inhibition of mutagenicity, TA 98, 250 μM + NaN3, no S9",52.2%
same,inhibition at 500 µM,"[3]; read-out: % inhibition of mutagenicity, TA 98, 500 μM + 2AF, S9",81.4%
same,inhibition at 500 µM,"[3]; read-out: % inhibition of mutagenicity, TA 98, 500 μM + BP, S9",78.8%
same,inhibition at 500 µM,"[3]; read-out: % inhibition of mutagenicity, TA 98, 500 μM + MMS, no S9",71%
same,inhibition at 500 µM,"[3]; read-out: % inhibition of mutagenicity, TA 98, 500 μM + NaN3, no S9",65.3%
same,Number of His+ revertants colonies/plate,"[3]; TA 98, 50 μM + 2AF, S9",210.3 ± 10.7 colonies/plate
same,Number of His+ revertants colonies/plate,"[3]; TA 98, 50 μM + BP, S9",138.0 ± 8.7 colonies/plate
same,Number of His+ revertants colonies/plate,"[3]; TA 98, 50 μM + MMS, no S9",50.3 ± 1.8 colonies/plate
same,Number of His+ revertants colonies/plate,"[3]; TA 98, 100 μM + 2AF, S9",172.3 ± 12.0 colonies/plate
same,Number of His+ revertants colonies/plate,"[3]; TA 98, 100 μM + BP, S9",105.3 ± 9.0 colonies/plate
same,Number of His+ revertants colonies/plate,"[3]; TA 98, 100 μM + MMS, no S9",45.3 ± 2.0 colonies/plate
same,Number of His+ revertants colonies/plate,"[3]; TA 98, 100 μM + NaN3, no S9",47.3 ± 1.8 colonies/plate
same,Number of His+ revertants colonies/plate,"[3]; TA 98, 250 μM + BP, S9",65.0 ± 6.8 colonies/plate
same,Number of His+ revertants colonies/plate,"[3]; TA 98, 250 μM + MMS, no S9",39.7 ± 2.0 colonies/plate
same,Number of His+ revertants colonies/plate,"[3]; TA 98, 250 μM + NaN3, no S9",40.7 ± 2.6 colonies/plate
same,Number of His+ revertants colonies/plate,"[3]; TA 98, 500 μM + 2AF, S9",65.3 ± 4.1 colonies/plate
same,Number of His+ revertants colonies/plate,"[3]; TA 98, 500 μM + BP, S9",52.7 ± 4.3 colonies/plate
same,Number of His+ revertants colonies/plate,"[3]; TA 98, 500 μM + MMS, no S9",35.0 ± 2.1 colonies/plate
same,% inhibition of mutagenicity,"[3]; TA 98, 500 μM + MMS, no S9, 500 µM",70.9%
same,Number of His+ revertants colonies/plate,"[3]; TA 98, 500 μM + NaN3, no S9",36.0 ± 1.7 colonies/plate
same,BP-induced DNA adducts,[4]; 20 μM test compound,42.9 ± 16 DNA adducts/10^8 nucleotides
same,BP-induced DNA adducts,[4]; 40 μM test compound,7.2 ± 6.1 DNA adducts/10^8 nucleotides
same,inhibition of BP-induced DNA adducts,"[4]; 40 μM, BP with rat liver microsomes, cofactors, DNA",97%
same,inhibition at 50 µg/mL,H1299 cells,57%
same,inhibition at 50 µg/mL,A549 cells,34%

# From PMC4052943 (BioMed Research International, 2014)
